For orientation: IC50 means the concentration at which inhibition is half-maximal.

One data set relates to SF-268 tumor cell line. Description: SRB cytotoxicity assay, SF-268. The format is cell-based, human. The following applies: SRB method, mean ± s, n=3. How it is done:
(§1) The in vitro cytotoxicities of compounds 1–11 were evaluated against the SF-268, MCF-7, NCI-H460, and HepG-2 tumor cell lines by the Sulforhodamine B (SRB) method.
(§2) Cytotoxicities of compounds (1–11) were assayed against four tumor cell lines SF-268, MCF-7, NCI-H460, and HepG-2. Assays were performed by the SRB method.
(In SRB staining, fixed cells bind dye roughly in proportion to their protein.)

A further data set concerns NCI-H460 tumor cell line. Description: SRB cytotoxicity assay, NCI-H460. It is filed as cell-based, human. The following applies: SRB method, mean ± s, n=3. The procedure: as §1, §2
Another data set deals with MCF-7 tumor cell line. Description: SRB cytotoxicity assay, MCF-7. It is filed as cell-based, human. The following applies: SRB method, mean ± s, n=3. How it is done: as §1, §2
A further data set concerns HepG-2 tumor cell line. Description: SRB cytotoxicity assay, HepG-2. The format is cell-based, human. The conditions noted are these: SRB method, mean ± s, n=3. How it is done:
as §1, §2

The target of the next data set is α-glucosidase. Kind of data set: α-glucosidase inhibitory activity assay. It is filed as biochemical. The conditions noted are these: in vitro; mean ± s, n=3. The procedure: All compounds were evaluated in vitro for α-glucosidase inhibitory activities.
An assay of α-glucosidase inhibitory activity was performed as previously described.

Data set [1] deals with SF-268, MCF-7, NCI-H460, and HepG-2 tumor cell lines. Description: SRB cytotoxicity, four tumor cell lines taken together. It is filed as cell-based, human. The conditions noted are these: for IC50: Homo sapiens, range over SF-268, MCF-7, NCI-H460, HepG-2, read-out: IC50 values against the four tumor cell lines; for cytotoxic / inhibitory activity against the four tumor cell lines (in words): SF-268, MCF-7, NCI-H460, HepG-2, SRB method. How it is done: as §1, §2

Where only a bound is given, the exact number is not on record here.

Consider `CSC1(Cc2ccccc2)NC(=O)C(CO)NC1=O` (stereo not shown) [Compound 8, 3-benzyl-6-(hydroxymethyl)-3-(methylthio)piperazine-2,5-dione], for which the IC50 in the data set with SF-268 tumor cell line (Homo sapiens, SF-268) is above 100 µM; with NCI-H460 tumor cell line (Homo sapiens, NCI-H460), above 100 µM; in the data set on MCF-7 tumor cell line (Homo sapiens, MCF7), above 100 µM; with HepG-2 tumor cell line (Homo sapiens, HepG2) it was above 100 µM; at α-glucosidase, above 500 µM.
For `CN1C(=O)[C@]23Cc4ccccc4N2C(=O)[C@@]1(CO)SS3` [Compound 4, 6-deoxy-5a,6-didehydrogliotoxin], the IC50 in the data set with SF-268 tumor cell line (Homo sapiens, SF-268) is 1.35 ± 0.05 µM; in data set [1], 0.08 to 1.52 µM; with NCI-H460 tumor cell line (Homo sapiens, NCI-H460), 1.27 ± 0.04 µM; with MCF-7 tumor cell line (Homo sapiens, MCF7), 0.68 ± 0.02 µM; with HepG-2 tumor cell line (Homo sapiens, HepG2) it was 1.52 ± 0.03 µM; on α-glucosidase, above 500 µM.
Regarding `C=c1c(=O)n2c(cc3ccccc32)c(=O)n1C` [Compound 11, 1,2,3,4-tetrahydro-2-methyl-3-methylene-1,4-dioxopyrazino[1,2-a]indole], the IC50 was 3.3 ± 0.28 µM with SF-268 tumor cell line (Homo sapiens, SF-268); 12.3 ± 0.24 µM in the data set on NCI-H460 tumor cell line (Homo sapiens, NCI-H460); 4.67 ± 1.4 µM with MCF-7 tumor cell line (Homo sapiens, MCF7); 2.29 ± 0.3 µM in the data set on HepG-2 tumor cell line (Homo sapiens, HepG2); above 500 µM against α-glucosidase. Besides, in data set [1], the “cytotoxic / inhibitory activity against the four tumor cell lines (in words)” value (from here on “cytotoxic / inhibitory activity”) is listed as “significant inhibitory activities”.
With `CN1C(=O)[C@]2(O)Cc3ccccc3N2C(=O)[C@H]1CO` [Compound 3, dichotocejpin C], the IC50 in the data set on SF-268 tumor cell line (Homo sapiens, SF-268) was above 100 µM; with NCI-H460 tumor cell line (Homo sapiens, NCI-H460) it was above 100 µM; in the data set with MCF-7 tumor cell line (Homo sapiens, MCF7), above 100 µM; in the data set with HepG-2 tumor cell line (Homo sapiens, HepG2) it was above 100 µM; on α-glucosidase, above 500 µM. Also, the “cytotoxic / inhibitory activity” value in data set [1] is “inactive or weak”.
Take `C=C1C(=O)N2C3C(=CC=CC3OC(C)=O)CC2(O)C(=O)N1C` (stereo not shown) [Compound 2, dichotocejpin B]: the IC50 with SF-268 tumor cell line (Homo sapiens, SF-268) was above 100 µM; with NCI-H460 tumor cell line (Homo sapiens, NCI-H460), above 100 µM; in the data set with MCF-7 tumor cell line (Homo sapiens, MCF7), above 100 µM; in the data set with HepG-2 tumor cell line (Homo sapiens, HepG2), above 100 µM; against α-glucosidase, above 500 µM. Further, the “cytotoxic / inhibitory activity” value in data set [1] was “inactive or weak”.
Consider `CC(=O)O[C@H]1C=CC=C2C[C@]34SS[C@](CO)(C(=O)N3C21)N(C)C4=O` (stereo partly shown) [Compound 6, acetylgliotoxin], for which the IC50 in the data set with SF-268 tumor cell line (Homo sapiens, SF-268) is 0.25 ± 0.03 µM; in data set [1] it was 0.08 to 1.52 µM; with NCI-H460 tumor cell line (Homo sapiens, NCI-H460) it was 0.32 ± 0.02 µM; in the data set on MCF-7 tumor cell line (Homo sapiens, MCF7), 0.22 ± 0.04 µM; in the data set on HepG-2 tumor cell line (Homo sapiens, HepG2) it was 0.49 ± 0.07 µM; against α-glucosidase it was above 500 µM.
“bisdethiobis(methylthio)gliotoxin [Compound 9]”: the half-maximal inhibitory concentration (IC50) was above 100 µM with SF-268 tumor cell line; above 100 µM with NCI-H460 tumor cell line; above 100 µM in the data set with MCF-7 tumor cell line; above 100 µM in the data set on HepG-2 tumor cell line; above 500 µM against α-glucosidase.
`CN1C(=O)[C@]23CC4=CC=C[C@H](O)[C@H]4N2C(=O)[C@@]1(CO)SS3` [Compound 5, gliotoxin]: the 50% inhibitory concentration (IC50) with SF-268 tumor cell line (Homo sapiens, SF-268) is 0.24 ± 0.1 µM; in data set [1], 0.08 to 1.52 µM; in the data set on NCI-H460 tumor cell line (Homo sapiens, NCI-H460) it was 0.24 ± 0.01 µM; in the data set on MCF-7 tumor cell line (Homo sapiens, MCF7), 0.08 µM; in the data set with HepG-2 tumor cell line (Homo sapiens, HepG2) it was 0.21 ± 0.01 µM; at α-glucosidase, above 500 µM.
For `CSC1(CO)C(=O)n2c(cc3ccccc32)C(=O)N1C` (stereo not shown) [Compound 1, dichotocejpin A], the IC50 in the data set on SF-268 tumor cell line (Homo sapiens, SF-268) is 35.7 ± 2.1 µM; in the data set with NCI-H460 tumor cell line (Homo sapiens, NCI-H460), above 100 µM; with MCF-7 tumor cell line (Homo sapiens, MCF7) it was 29.5 ± 2.3 µM; with HepG-2 tumor cell line (Homo sapiens, HepG2), 28.9 ± 3 µM; against α-glucosidase, 138 ± 6.7 µM. In addition, in data set [1], the “cytotoxic / inhibitory activity” value was “inactive or weak”.
Consider `N.N.[Cl][Pt][Cl]` [cisplatin, reference compound], for which the concentration for half-maximal inhibition (IC50) in the data set on SF-268 tumor cell line amounted to 2.37 ± 0.35 µM; with NCI-H460 tumor cell line it was 2.43 ± 0.15 µM; in the data set on MCF-7 tumor cell line, 3.09 ± 0.27 µM; with HepG-2 tumor cell line it was 1.39 ± 0.18 µM.
Consider `CS[C@]1(CO)C(=O)N2[C@H]3C(=CC=C[C@@H]3OC(C)=O)C[C@@]2(SC)C(=O)N1C` [Compound 10, 6-acetylbis(methylthio)gliotoxin], for which the IC50 in the data set on SF-268 tumor cell line (Homo sapiens, SF-268) is 34 ± 3.6 µM; with NCI-H460 tumor cell line (Homo sapiens, NCI-H460), 5.4 ± 0.6 µM; with MCF-7 tumor cell line (Homo sapiens, MCF7), 3.1 ± 0.1 µM; in the data set with HepG-2 tumor cell line (Homo sapiens, HepG2) it was 7 ± 0.17 µM; against α-glucosidase, above 500 µM. Also, the “cytotoxic / inhibitory activity” value in data set [1] is “significant inhibitory activities”.
Consider `CS[C@@]1(CO)NC(=O)[C@@](Cc2ccccc2)(SC)NC1=O` [Compound 7, bis-N-norgliovictin], for which the IC50 with SF-268 tumor cell line (Homo sapiens, SF-268) was above 100 µM; with NCI-H460 tumor cell line (Homo sapiens, NCI-H460) it was above 100 µM; in the data set on MCF-7 tumor cell line (Homo sapiens, MCF7), above 100 µM; in the data set with HepG-2 tumor cell line (Homo sapiens, HepG2) it was above 100 µM; on α-glucosidase it was above 500 µM.

For the origin of these results see publication PMC5039535, “Dichotocejpins A–C: New Diketopiperazines from a Deep-Sea-Derived Fungus Dichotomomyces cejpii FS110” (Marine Drugs, 2016).
